According to patent US12285407B2, “Bis-indolylmethane derivatives and uses thereof” (The University of The West Indies, priority 2018, dated 2025):
Read-outs that look alike come from different tables or passages of the source.

Tests used:
MRSA = assay: Adjuvant broth microdilution (antibiotic MIC with SP-BIM at 50 μg/mL); assay type: cell-based, Staphylococcus aureus; details: Staphylococcus aureus, antibiotic alone, Table 4, read-out: MIC of antibiotic, No compound
Klebsiella pneumoniae = assay: as above; assay type: cell-based; details: Klebsiella pneumoniae; antibiotic alone; Table 7; read-out: MIC of antibiotic, No compound
Enterococcus faecium = assay: Checkerboard synergy (FICI) of antibiotics with SP-BIM; assay type: cell-based; details: Enterococcus faecium, Enterococcus faecium; for MIC: 24 h, antibiotic alone, read-out: MIC antibiotic only
[1] = test system: clinical antibiotic resistant isolates of MRSA; assay: Checkerboard resistance breaking by SP-BIM 13; assay type: cell-based, Staphylococcus aureus; details: for FIC compound / Rescue concentration of SP-BIM 13: SP-BIM 13 with the labelled antibiotic; for Interpretation / Σ FIC: antibiotic + SP-BIM 13; for MIC of antibiotic only: antibiotic alone; for FIC antibiotic: combination with SP-BIM 13; for MIC of antibiotic in combination: with SP-BIM 13 at rescue concentration

[H]/N=C(/N)N[C@H]1[C@H](O)[C@@H](O)[C@H](O[C@@H]2O[C@@H](C)[C@](O)(C=O)[C@H]2O[C@@H]2O[C@@H](CO)[C@H](O)[C@@H](O)[C@@H]2NC)[C@@H](N/C(N)=N\[H])[C@@H]1O [Streptomycin, streptomycin]
MIC (MRSA): 63 mg/L | MIC (Klebsiella pneumoniae): 32 mg/L | MIC (Enterococcus faecium; SP-BIM 9 checkerboard): 32 mg/L | MIC (Enterococcus faecium; SP-BIM 13 checkerboard): 32 mg/L | MIC in combination, SP-BIM 9 (Enterococcus faecium; SP-BIM 9 concentration in combination with the labelled antibiotic): 16 mg/L | FIC of SP-BIM 9 (Enterococcus faecium; SP-BIM 9 in combination with the labelled antibiotic): 0.1 | FIC of SP-BIM 13 (Enterococcus faecium; SP-BIM 13 in combination with the labelled antibiotic): 0.5 | Interpretation (Enterococcus faecium; antibiotic + SP-BIM 9): Synergy (Synergy: FICI≤0.5) | Σ FIC (Enterococcus faecium; antibiotic + SP-BIM 9): ≤0.3 | Interpretation (Enterococcus faecium; antibiotic + SP-BIM 13): Additive (Additive: FICI>0.5-1.0) | Σ FIC (Enterococcus faecium; antibiotic + SP-BIM 13): 0.6 | MIC in combination, Antibiotic (Enterococcus faecium; antibiotic in combination with SP-BIM 9): 8 mg/L | MIC in combination, Antibiotic (Enterococcus faecium; antibiotic in combination with SP-BIM 13): 4 mg/L | FIC of antibiotic (Enterococcus faecium; in combination with SP-BIM 9): 0.3 | FIC of antibiotic (Enterococcus faecium; in combination with SP-BIM 13): 0.1 | FIC compound ([1]; MRSA strain 1594): 0.004 | Rescue concentration of SP-BIM 13 ([1]; MRSA strain 1594): 16 µg/mL | Interpretation ([1]; MRSA strain 1594): Synergy (Synergy: FICI≤0.5) | Σ FIC ([1]; MRSA strain 1594): <0.13 | MIC of antibiotic only ([1]; MRSA strain 1594): 63 mg/L | FIC antibiotic ([1]; MRSA strain 1594): 0.127 | MIC of antibiotic in combination ([1]; MRSA strain 1594): 8 mg/L | FIC compound ([1]; MRSA strain 5872): 0.064 | Rescue concentration of SP-BIM 13 ([1]; MRSA strain 5872): 16 µg/mL | Interpretation ([1]; MRSA strain 5872): Synergy (Synergy: FICI≤0.5) | Σ FIC ([1]; MRSA strain 5872): <0.07 | MIC of antibiotic only ([1]; MRSA strain 5872): 125 mg/L | FIC antibiotic ([1]; MRSA strain 5872): 0.004 | MIC of antibiotic in combination ([1]; MRSA strain 5872): 0.5 mg/L | FIC compound ([1]; MRSA strain 7153): 0.064 | Rescue concentration of SP-BIM 13 ([1]; MRSA strain 7153): 16 µg/mL | Interpretation ([1]; MRSA strain 7153): Synergy (Synergy: FICI≤0.5) | Σ FIC ([1]; MRSA strain 7153): <0.08 | MIC of antibiotic only ([1]; MRSA strain 7153): 63 mg/L | FIC antibiotic ([1]; MRSA strain 7153): 0.016 | MIC of antibiotic in combination ([1]; MRSA strain 7153): 1 mg/L | FIC compound ([1]; MRSA strain 7698): 0.032 | Rescue concentration of SP-BIM 13 ([1]; MRSA strain 7698): 8 µg/mL | Interpretation ([1]; MRSA strain 7698): Synergy (Synergy: FICI≤0.5) | Σ FIC ([1]; MRSA strain 7698): <0.05 | MIC of antibiotic only ([1]; MRSA strain 7698): 125 mg/L | FIC antibiotic ([1]; MRSA strain 7698): 0.016 | MIC of antibiotic in combination ([1]; MRSA strain 7698): 2 mg/L | FIC compound ([1]; MRSA strain 10132): 0.064 | Rescue concentration of SP-BIM 13 ([1]; MRSA strain 10132): 16 µg/mL | Interpretation ([1]; MRSA strain 10132): Synergy (Synergy: FICI≤0.5) | Σ FIC ([1]; MRSA strain 10132): <0.07 | MIC of antibiotic only ([1]; MRSA strain 10132): 63 mg/L | FIC antibiotic ([1]; MRSA strain 10132): 0.008 | MIC of antibiotic in combination ([1]; MRSA strain 10132): 0.5 mg/L
